Our source for the IC50 values is patent publication US8623862B2, “Derivatives of N-[(1H-pyrazol-1-yl)aryl]-1H-indole or 1H-indazole-3-carboxamide, preparation thereof and applications thereof in therapeutics” (Sanofi, priority 2011, dated 2014).

Structures can show the parent of a compound that is named as a salt.

One assay relates to platelet aggregation. The experiment in a line: Inhibition of platelet aggregation in vitro (rat blood).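 Note: aggregation induced by ADP added as 4 µL of a 250 µM solution.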 It counts as cell-based. The following applies: 0.1 h; rat platelet-rich plasma, ADP-induced aggregation, area under the curve of absorbance for 6 minutes; read-out: Inhibition of platelet aggregation in vitro (rat blood). The protocol:
The measurements of platelet aggregation are performed at 37° C. in glass tubes (Chrono-Log—Kordia aggregometer).
Inhibition of Platelet Aggregation In Vitro (Rat Blood)
The blood is taken from male rats of the Sprague-Dawley strain, weighing 250-300 g.
The platelet-rich plasma (PRP) is obtained by centrifugation of the blood at 300 g for 5 minutes, and the measurements of platelet aggregation are performed as described above.
The results are calculated using the area under the curve of absorbance measured for 6 minutes, and expressed as percentage inhibition.
`CCCC(=O)c1cnn(-c2ccc(NC(=O)c3cn(CC(=O)N4CCNC(C)C4)c4ccc(C)cc34)cc2)c1C` (stereo not drawn) [Compound 242, N-[4-(4-Butyryl-5-methyl-1H-pyrazol-1-yl)phenyl]-5-methyl-1-[2-(3-methylpiperazin-1-yl)-2-oxoethyl]-1H-indole-3-carboxamide hydrochloride]: the IC50 was 510 nM.

Still in this assay, the particulars now being: rat blood, in vitro; read-out: Inhibition of platelet aggregation in vitro (rat blood).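 Note: aggregation induced by ADP added as 4 µL of a 250 µM solution.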
As for `CCCC(=O)c1cnn(-c2ccc(NC(=O)c3cn(CC(=O)N4CC[C@@H](C(=O)NC5CC5)C4)c4ccc(Cl)cc34)cc2)c1C` [Compound 188], the IC50 turned out to be 550 nM. On the same count and under the same terms, under `CCCC(=O)c1cnn(-c2ccc(NC(=O)c3cn(CC(=O)N4CCN5CCCC5C4)c4ccc(C)cc34)cc2)c1C` (stereo not drawn) [Compound 123] stands 350 nM; under `CCCC(=O)c1cnn(-c2ccc(NC(=O)c3cn(CC(=O)N(C)CCNC)c4ccc(C)cc34)cc2)c1C` [Compound 126], 760 nM; under `CCCC(=O)c1cnn(-c2ccc(NC(=O)c3cn(CC(=O)N4CCN(CC(O)C(F)(F)F)CC4)c4ccc(Cl)cc34)cc2)c1C` (stereo not drawn) [Compound 209], 420 nM. Still for that read-out and setting: next, `CCCC(=O)c1cnn(-c2ccc(NC(=O)c3cn(CC(=O)N(C)CCO)c4cc(C)c(C)cc34)cc2)c1C` [Compound 108]: 980 nM; `CCCC(=O)c1cnn(-c2ccc(NC(=O)c3cn(CC(=O)N4CCn5ccnc5C4)c4ccc(Cl)cc34)cc2)c1C` [Compound 172]: 330 nM. On the same count and under the same terms, under `CC(=O)c1cnn(-c2ccc(NC(=O)c3cn(CC(=O)N4CCN(C)CC4)c4ccc(Cl)cc34)cc2)c1C` [Compound 216] stands 730 nM; under `CCCC(=O)c1cnn(-c2ccc(NC(=O)c3cn(CC(=O)NC)c4cc(C)c(C)cc34)cc2)c1C` [Compound 109], 2420 nM; under `CCCC(=O)c1cnn(-c2ccc(NC(=O)c3cn(CC(=O)N4CCN(CCOCCO)CC4)c4ccc(Cl)cc34)cc2)c1C` [Compound 144], 190 nM.

As to `CCCC(=O)c1cnn(-c2ccc(NC(=O)c3cn(CC(=O)N4CC(C)NC(C)C4)c4ccc(Cl)cc34)cc2)c1C` (stereo not drawn) [Compound 159], the IC50 amounted to 410 nM.

Regarding `CCC(=O)c1cnn(-c2ccc(NC(=O)c3cn(CC(=O)N4CCN(C)CC4)c4ccc(Cl)cc34)cc2)c1C` [Compound 217], the IC50 worked out at 600 nM. On the same count and under the same terms, next, `CCCC(=O)c1cnn(-c2ccc(NC(=O)c3cn(CC(=O)N4CCCC(N(C)C)C4)c4ccc(C)cc34)cc2)c1C` (stereo not drawn) [Compound 125]: 580 nM; `CCCC(=O)c1cnn(-c2ccc(NC(=O)c3cn(CC(=O)N4CCN(CCNC(C)=O)CC4)c4ccc(Cl)cc34)cc2)c1C` [Compound 197]: 250 nM.

Consider `CCCC(=O)c1cnn(-c2ccc(NC(=O)c3cn(CC(=O)N4CCN(CC(F)(F)F)CC4)c4ccc(C)cc34)cc2)c1C` [Compound 129], for which the IC50 was found to be 650 nM. Same read-out and setting: next, `CCCC(=O)c1cnn(-c2ccc(NC(=O)c3cn(CC(=O)NCCn4ccnc4)c4ccc(C)cc34)cc2)c1C` [Compound 134]: 950 nM; `CCCC(=O)c1cnn(-c2ccc(NC(=O)c3cn(CC(=O)N4CCCN(C)CC4)c4ccc(C)cc34)cc2)c1C` [Compound 130]: 470 nM. On the same count and under the same terms, under `CCCC(=O)c1cnn(-c2ccc(NC(=O)c3cn(CC(=O)N4CCN(CC(=O)NC)CC4)c4ccc(Cl)cc34)cc2)c1C` [Compound 163] stands 290 nM.

As for `CCCC(=O)c1cnn(-c2ccc(NC(=O)c3cn(CC(=O)N4CCN(C)CC4)c4ccc(C)cc34)cc2)c1C` [Compound 114], the IC50 stood at 270 nM. On the same count and under the same terms, under `CCCC(=O)c1cnn(-c2ccc(NC(=O)c3cn(CC(=O)N4CCC(OCCOC)C4)c4ccc(Cl)cc34)cc2)c1C` (stereo not drawn) [Compound 206] stands 830 nM.

Staying with this assay, now noted: rat platelet-rich plasma, ADP-induced aggregation, area under the curve of absorbance for 6 minutes; read-out: Inhibition of platelet aggregation in vitro (rat blood).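 Note: aggregation induced by ADP added as 4 µL of a 250 µM solution.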
Regarding `CCCCN1CCN(C(=O)Cn2cc(C(=O)Nc3ccc(-n4ncc(C(=O)CCC)c4C)nn3)c3cc(Cl)ccc32)CC1` [Compound 55], the IC50 stood at 160 nM. On the same count and under the same terms, next, `CCCC(=O)c1cnn(-c2ccc(NC(=O)c3cn(CC(=O)N4CCC(N5CCOCC5)CC4)c4ccc(Cl)cc34)nn2)c1C` [Compound 65]: 120 nM. The same measure, in the same setting: under `CCCC(=O)c1cnn(-c2ccc(NC(=O)c3cn(CC(=O)N4CC5CCN(C)C5C4)c4ccc(C)cc34)cc2)c1C` (stereo not drawn) [Compound 265] stands 790 nM; under `CCCC(=O)c1cnn(-c2ccc(NC(=O)c3cn(CC(=O)O)c4ccc(C#N)cc34)cc2)c1C` [Compound 23], 4100 nM; under `CCCC(=O)c1cnn(-c2ccc(NC(=O)c3cn(CC(=O)NCC(C)(C)N(C)C)c4ccc(Cl)cc34)nn2)c1C` [Compound 83], 330 nM.

In the case of `CCCC(=O)c1cnn(-c2ccc(NC(=O)c3cn(CC(=O)N4CCN(CC(=O)NC5CC5)CC4)c4ccc(Cl)cc34)nn2)c1C` [Compound 81], the IC50 worked out at 40 nM. In the case of `CCCC(=O)c1cnn(-c2ccc(NC(=O)c3cn(CC(=O)O)c4cc(Br)c(C)cc34)cc2)c1C` [Compound 19], the IC50 stood at 42000 nM. On the same count and under the same terms, under `CCCC(=O)c1cnn(-c2ccc(NC(=O)c3cn(CC(=O)N4CCN5CCCCC5C4)c4ccc(Cl)cc34)nn2)c1C` (racemic) [Compound 67] stands 90 nM. Still for that read-out and setting: under `CCCC(=O)c1cnn(-c2ccc(NC(=O)c3cn(CC(=O)N4CC5CC4CN5C)c4ccc(C)cc34)cc2)c1C` (stereo not drawn) [Compound 264] stands 560 nM; under `CCCC(=O)c1cnn(-c2ccc(NC(=O)c3cn(CC(=O)N4CCn5cnnc5C4)c4ccc(Cl)cc34)nn2)c1C` [Compound 70], 110 nM; under `CCCC(=O)c1cnn(-c2ccc(NC(=O)c3cn(CC(=O)O)c4cc(C)ccc34)cc2)c1C` [Compound 8], 63000 nM. With `CCCC(=O)c1cnn(-c2ccc(NC(=O)c3cn(CC(=O)N4CCC(C(F)(F)F)C4)c4ccc(Cl)cc34)nn2)c1C` (stereo not drawn) [Compound 75], the IC50 came to 270 nM. Same read-out and setting: under `CCCC(=O)c1cnn(-c2ccc(NC(=O)c3cn(CC(=O)N4CCC(OC)CC4)c4ccc(Cl)cc34)nn2)c1C` [Compound 94] stands 180 nM; under `CCCC(=O)c1cnn(-c2ccc(NC(=O)c3cn(CC(=O)N4Cc5ccncc5C4)c4ccc(Cl)cc34)nn2)c1C` [Compound 76], 60 nM; under `CCCC(=O)c1cnn(-c2ccc(NC(=O)c3cn(CC(=O)N4CCC(NC)CC4)c4ccc(C)cc34)cc2)c1C` [Compound 248], 320 nM. The same measure, in the same setting: under `CCCC(=O)c1cnn(-c2ccc(NC(=O)c3cn(CC(=O)N4CCN(C)C(=O)C4)c4ccc(Cl)cc34)nn2)c1C` [Compound 44] stands 160 nM.

On to `CCCC(=O)c1cnn(-c2ccc(NC(=O)c3cn(CC(=O)O)c4ccc(N(C)C)cc34)cc2)c1C` [Compound 22], for which the IC50 is 1200 nM. Still for that read-out and setting: under `CCCC(=O)c1cnn(-c2ccc(NC(=O)c3cn(CC(=O)NC)c4ccc(Cl)cc34)nn2)c1C` [Compound 32] stands 190 nM; under `CCCC(=O)c1cnn(-c2ccc(NC(=O)c3cn(CC(=O)O)c4ccc(Br)cc34)cc2)c1C` [Compound 14], 1900 nM; under `CCCC(=O)c1cnn(-c2ccc(NC(=O)c3cn(CC(=O)N4CCN(C)C(CO)C4)c4ccc(C)cc34)cc2)c1C` (stereo not drawn) [Compound 268], 240 nM.

In the case of `CCCC(=O)c1cnn(-c2ccc(NC(=O)c3cn(CC(=O)N4CCCC4)c4ccc(Cl)cc34)nn2)c1C` [Compound 40], the IC50 came to 100 nM.

Take `CCCC(=O)c1cnn(-c2ccc(NC(=O)c3cn(CC(=O)N4CCN(CC(=O)N(C)C)CC4)c4ccc(Cl)cc34)nn2)c1C` [Compound 101]: the IC50 was found to be 110 nM.
